Experiment: recombinant UMI read abundance after kanamycin selection (control-corrected) (log10(CPM+1)); higher = more efficient recombination; extreme values may be limits of the assay; sequences stand for … in AGTGCAGAGAAAATCGGCCAGTTTTCTCTGCCTGCAGTCCGCATGCCGTGGGACCCCTTGGGTTCTAACCTGTTGCCTAGATTTATGCAGCGGACTGCCTTTCTCCCAAAGTGATAAACCGG…AGGTTGGTTTCACT; site = the 11-nt donor
Method in brief: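 Reported values are log10(CPM+1) from a pooled Escherichia coli screen of donor and donor-binding-loop pairs for the IS621 bridge recombinase. Selection used IPTG (0.07 mM) plus kanamycin, against unselected plating, each in two replicates. Recombinant UMIs were amplified across the donor–target junction, sequenced, converted to CPM, averaged over replicates and scaled by control-derived factors.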
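Note: IS621 bridge recombinase in Escherichia coli cells against a fixed T5 target plasmid.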

Sequence | recombinant UMI read abundance (log10)
TAGCTAGCATGGACCGGTTTTCCCGGTAATCCGTATTTGAA (site TAGCTAGCTAT) | 0.502
TAGCTAGCATGGACCGGTTTTCCCGGTAATCCGTATTTGAA (site TAGCTAGCTCT) | 0.00536
TAGCTAGCATGGACCGGTTTTCCCGGTAATCCGTATTTGAA (site TAGCTAGCTGT) | 1.28
TAGCTAGCATGGACCGGTTTTCCCGGTAATCCGTATTTGAA (site TAGCTAGCTTA) | 0.00377
TAGCTAGCATGGACCGGTTTTCCCGGTAATCCGTATTTGAA (site TAGCTAGCTTC) | 0.504
TAGCTAGCATGGACCGGTTTTCCCGGTAATCCGTATTTGAA (site TAGCTAGCTTG) | 0.0037
TAGCTAGCATGGACCGGTTTTCCCGGTAATCCGTATTTGAA (site TAGCTAGCTTT) | 0.858
TAGCTAGCATGGACCGGTTTTCCCGGTAATCCGTATTTGAA (site TAGCTATCTTT) | 0.588
TAGCTAGCATGGACCGGTTTTCCCGGTAATCCGTATTTGAA (site TAGCTCGCTTT) | 0.0026
TAGCTAGCATGGACCGGTTTTCCCGGTAATCCGTATTTGAA (site TAGCTGGCTTT) | 0.0168
TAGCTAGCATGGACCGGTTTTCCCGGTAATCCGTATTTGAA (site TAGCTTGCTTT) | 0.00961
TAGCTAGCATGGACCGGTTTTCCCGGTAATCCGTATTTGAA (site TAGGTAGCTTT) | 0.0179
TAGCTAGCATGGACCGGTTTTCCCGGTAATCCGTATTTGAA (site TAGTTAGCTTT) | 0.0249
TAGCTAGCATGGACCGGTTTTCCCGGTAATCCGTATTTGAA (site TATCTAGCTTT) | 0.0236
TAGCTAGCATGGACCGGTTTTCCCGGTAATCCGTATTTGAA (site TCGCTAGCTTT) | 0.00871
TAGCTAGCATGGACCGGTTTTCCCGGTAATCCGTATTTGAA (site TGGCTAGCTTT) | 0.0087
TAGCTAGCATGGACCGGTTTTCCCGGTAATCCGTATTTGAA (site TTGCTAGCTTT) | 0.00459
TAGCTGACATGGACCGGTTTTCCCGGTAATCCGTATTTGCG (site TAGCTGACTCG) | 1.5
TAGGAATCATGGACCGGTTTTCCCGGTAATCCGTATTTGCA (site TAGGAATCTAG) | 1.62
TAGGAATCATGGACCGGTTTTCCCGGTAATCCGTATTTGCA (site TAGGAATCTCG) | 1.64
TAGGAATCATGGACCGGTTTTCCCGGTAATCCGTATTTGCA (site TAGGAATCTGG) | 0.896
TAGGAATCATGGACCGGTTTTCCCGGTAATCCGTATTTGCA (site TAGGAATCTTG) | 2.82
TAGGAATCATGGACCGGTTTTCCCGGTAATCCGTATTTGTG (site TAGGAATCTCA) | 3.2
TAGGAATCATGGACCGGTTTTCCCGGTAATCCGTATTTGTG (site TAGGAATCTCC) | 2.13
TAGGAATCATGGACCGGTTTTCCCGGTAATCCGTATTTGTG (site TAGGAATCTCG) | 2.63

Sequence | recombinant UMI read abundance (log10)
TAGGAATCATGGACCGGTTTTCCCGGTAATCCGTATTTGTG (site TAGGAATCTCT) | 2.59
TAGGAGTCATGGACCGGTTTTCCCGGTAATCCGTATTTGCG (site TAGGAATCTCG) | 3.12
TAGGAGTCATGGACCGGTTTTCCCGGTAATCCGTATTTGCG (site TAGGACTCTCG) | 1.24
TAGGAGTCATGGACCGGTTTTCCCGGTAATCCGTATTTGCG (site TAGGAGTCTCG) | 3.24
TAGGAGTCATGGACCGGTTTTCCCGGTAATCCGTATTTGCG (site TAGGATTCTCG) | 0.951
TAGGCCGCATGGACCGGTTTTCCCGGTAATCCGTATTTGTG (site CCATTGACTTT) | 0.00523
TAGGCTTCATGGACCGGTTTTCCCGGTAATCCGTATTTGGT (site TAGACTTCTAC) | 0.0923
TAGGCTTCATGGACCGGTTTTCCCGGTAATCCGTATTTGGT (site TAGCCTTCTAC) | 0.0146
TAGGCTTCATGGACCGGTTTTCCCGGTAATCCGTATTTGGT (site TAGGCTTCTAC) | 1.54
TAGGCTTCATGGACCGGTTTTCCCGGTAATCCGTATTTGGT (site TAGTCTTCTAC) | 0.0132
TAGGGAACATGGACCGGTTTTCCCGGTAATCCGTATTTGGC (site TAGGGAACTGC) | 1.53
TAGGTTGCATGGACCGGTTTTCCCGGTAATCCGTATTTGTA (site TAGGTTGCTTA) | 2.39
TAGTAACCATGGACCGGTTTTCCCGGTAATCCGTATTTGAG (site TAGTAACCTCT) | 0.00753
TAGTGCCCATGGACCGGTTTTCCCGGTAATCCGTATTTGGC (site TAGTGCCCTGC) | 0
TAGTGTTCATGGACCGGTTTTCCCGGTAATCCGTATTTGCA (site TAGTGTTCTTG) | 2.49
TAGTTGGCATGGACCGGTTTTCCCGGTAATCCGTATTTGGG (site TAGTTGGCTCC) | 0.0252
TATAAGCCATGGACCGGTTTTCCCGGTAATCCGTATTTGCC (site TATAAGCCTGG) | 0
TATAGCGCATGGACCGGTTTTCCCGGTAATCCGTATTTGGC (site TATAGCGCTGC) | 2.48
TATAGGCCATGGACCGGTTTTCCCGGTAATCCGTATTTGAG (site TATAGGCCTCT) | 0.0191
TATCATTCATGGACCGGTTTTCCCGGTAATCCGTATTTGGG (site TATCATTCTCC) | 0.00534
TATCCGTCATGGACCGGTTTTCCCGGTAATCCGTATTTGAA (site TATCCGTCTTT) | 0.0803
TATGAGTCATGGACCGGTTTTCCCGGTAATCCGTATTTGCT (site TATGAGTCTAG) | 2.74
TATGCAACATGGACCGGTTTTCCCGGTAATCCGTATTTGTT (site TATGCAACTAA) | 0.0144
TATGCACCATGGACCGGTTTTCCCGGTAATCCGTATTTGGT (site TATGCACCTAC) | 0.0323
TATGTGTCATGGACCGGTTTTCCCGGTAATCCGTATTTGAC (site AATGTGTCTGT) | 0

Sequence | recombinant UMI read abundance (log10)
TATGTGTCATGGACCGGTTTTCCCGGTAATCCGTATTTGAC (site CATGTGTCTGT) | 0
TATGTGTCATGGACCGGTTTTCCCGGTAATCCGTATTTGAC (site GATGTGTCTGT) | 0
TATGTGTCATGGACCGGTTTTCCCGGTAATCCGTATTTGAC (site TATGTGTCTGT) | 0.884
TATTACACATGGACCGGTTTTCCCGGTAATCCGTATTTGCC (site TATTACACTGG) | 2.37
TATTAGACATGGACCGGTTTTCCCGGTAATCCGTATTTGCG (site TATTAGACTCG) | 1.03
TATTGGGCATGGACCGGTTTTCCCGGTAATCCGTATTTGTG (site TATTAGGCTCA) | 0.0242
TATTGGGCATGGACCGGTTTTCCCGGTAATCCGTATTTGTG (site TATTCGGCTCA) | 0.00589
TATTGGGCATGGACCGGTTTTCCCGGTAATCCGTATTTGTG (site TATTGGGCTCA) | 0.226
TATTGGGCATGGACCGGTTTTCCCGGTAATCCGTATTTGTG (site TATTTGGCTCA) | 0.0234
TATTGTGCATGGACCGGTTTTCCCGGTAATCCGTATTTGGT (site TATTGTGCTAC) | 0.401
TATTTGTCATGGACCGGTTTTCCCGGTAATCCGTATTTGTG (site TATTTGACTCA) | 0.0169
TATTTGTCATGGACCGGTTTTCCCGGTAATCCGTATTTGTG (site TATTTGCCTCA) | 0.0214
TATTTGTCATGGACCGGTTTTCCCGGTAATCCGTATTTGTG (site TATTTGGCTCA) | 0.0347
TATTTGTCATGGACCGGTTTTCCCGGTAATCCGTATTTGTG (site TATTTGTCTCA) | 0.515
TATTTTGCATGGACCGGTTTTCCCGGTAATCCGTATTTGTG (site TATTTAGCTCA) | 0.00468
TATTTTGCATGGACCGGTTTTCCCGGTAATCCGTATTTGTG (site TATTTCGCTCA) | 0.0112
TATTTTGCATGGACCGGTTTTCCCGGTAATCCGTATTTGTG (site TATTTGGCTCA) | 0
TATTTTGCATGGACCGGTTTTCCCGGTAATCCGTATTTGTG (site TATTTTGCTCA) | 0.00898
TCAATTTCATGGACCGGTTTTCCCGGTAATCCGTATTTGGC (site TCAATTTCTGC) | 0
TCACACTCATGGACCGGTTTTCCCGGTAATCCGTATTTGAT (site TCACACTCTAT) | 2.38
TCACAGCCATGGACCGGTTTTCCCGGTAATCCGTATTTGCA (site TCACAGCCTTG) | 0.816
TCACCTGCATGGACCGGTTTTCCCGGTAATCCGTATTTGCG (site TCACCTGCTCG) | 0.016
TCACCTGCATGGACCGGTTTTCCCGGTAATCCGTATTTGTT (site TCACCTGCTAA) | 0.063
TCACGCACATGGACCGGTTTTCCCGGTAATCCGTATTTGCT (site TCACGCACTAG) | 1.97
TCACGTACATGGACCGGTTTTCCCGGTAATCCGTATTTGAT (site TCACGTACTAT) | 0.589
